{"source": "patent US20200254110A1", "about": "“LIGAND-CONJUGATES AND METHODS FOR TARGETED RECEPTOR-MEDIATED CELLULAR UPTAKE” (priority 2017, published 2020)", "key": {"PAR2": {"target": "T1, PAR2 (Homo sapiens, UniProt P55085)", "T1 sequence (P55085 26-397)": "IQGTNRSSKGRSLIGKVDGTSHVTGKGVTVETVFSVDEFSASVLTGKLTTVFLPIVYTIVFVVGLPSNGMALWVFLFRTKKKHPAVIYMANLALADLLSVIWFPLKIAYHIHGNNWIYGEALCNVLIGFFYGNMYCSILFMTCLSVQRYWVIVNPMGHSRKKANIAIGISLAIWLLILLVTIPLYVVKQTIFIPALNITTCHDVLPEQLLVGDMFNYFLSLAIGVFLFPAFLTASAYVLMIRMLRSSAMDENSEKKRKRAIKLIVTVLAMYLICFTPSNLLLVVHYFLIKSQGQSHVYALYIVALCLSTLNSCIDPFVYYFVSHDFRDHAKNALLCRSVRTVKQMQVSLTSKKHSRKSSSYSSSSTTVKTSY", "conditions": "PAR2 agonist peptide, reference [1]; cited from earlier work"}, "[1]": {"target": "T2, PAR2-expressing HEK293 (human embryonic kidney) cells (Homo sapiens, UniProt P55085)", "T2 construct": "PAR2-expressing HEK293 (human embryonic kidney) cells; endogenous in cells; host or cells: HEK293", "T2 sequence (P55085 26-397)": "T1 sequence (P55085 26-397)", "assay": "Intracellular Ca2+ mobilization assay (Indo-1 AM, flow cytometry)", "format": "cell-based", "conditions": "for relative potential of PAR2 activation (rank order): HEK293 cells, calcium mobilization, FIG. 4 A-C; for shift in relative fluorescence intensity (RFI) of the cells relative to the untreated sample (PAR2 activation, intracellular calcium mobilization): HEK293 cells preincubated with Indo-1 AM, P6 100-200 μM, P8 200-400 μM, flow cytometry", "excerpt": "To test whether the modified PAR ligands such as the synthesis intermediates as well as the final compound P8 are capable of binding and activating PAR in vitro a calcium-based cell activation assay was established on the basis of the assay for measurement of intracellular Ca^2+ mobilization described in Kelm et al., J. Exp. Med. 195 (2002), 1207-1213, which can be used directly on PAR, i.e. PAR2 expressing cells.\nSOP: Measurement of Intracellular Ca^2+ Mobilization • Thaw 1 aliquot of frozen (from liquid N2) HEK293 cells (careful at RT) • Provide 10 mL of DMEM (Dulbecco's Modified Eagle Medium, phenol red free!) containing 10% FCS, antibiotics (50 μg/mL gentamicin final conc.) on a 10 cm cell culture plate • Add cells to the plate and grow them at 37° C., 8% CO2 until 60-70% confluency (one cell layer on the plate) • Wash the cells 3× with 10 mM PBS (phosphate buffer saline), pH 7.4 • Add 10 mL of fresh DMEM (phenol red free!) and carefully resuspend the cells • Count the cells employing a flow cytometer and dilute to 3×10^5 cells/mL in DMEM (phenol red free!) • Pipette 1 ml of the diluted cell suspension in each well of a 24-well cell culture plate • Add 30 μL of Pluronic® F-127 (0.01% (v/v) final conc., P2443 Sigma-Aldrich) and 15 μL of Indo 1-AM ester in DMSO (15 μM final conc., I3261 Sigma-Aldrich) to the cell suspension • Incubate for 45 min at 37° C., 8% CO2, in the dark • Henceforward keep the cells in the dark • Remove cells from the culture plate and subsequently wash 1× with 15 mL of HEPES buffer (100 mM HEPES, pH 7.4) to remove excess Indo 1-AM ester and resuspend cells in 1 mL HEPES buffer (100 mM HEPES, pH 7.4) • Add 10 μL propidium iodide (PI: final conc. 100 ng/mL, P4864 Sigma-Aldrich) to the cell suspension and immediately perform flow cytometry analysis • Perform flow cytometry analysis using the appropriate laser/filter sets (CyFlow® Cube 8 Sysmex):\nIndo 1-AM: λexcitation,max 345 nm, λemission,max 400 nm (Ca^2+ bound), λemission,max 475 nm (Ca^2+ free), (excitation: UV-LED, emission: FL4 channel, 455/50 nm)\nPI: λexcitation,max 535 nm (DNA-bound), λemission,max 617 nm (DNA-bound), (excitation: 488 nm laser, emission: FL2 channel, 590/50 nm) • For PAR-2 activation, add the appropriate amount of activator (SLIGRL: 50 μM final conc., trypsin: 40 Units (TRYPSEQM-RO Roche), P6 or P8: 100-200 μM or 200-400 μM respectively) to the cell suspension (containing 15 nmol Indo 1-AM ester) and immediately perform flow cytometry analysis • Determine the decrease in relative fluorescence intensity (due to the shift from unbound towards calcium bound Indo 1-AM complexes) after PAR mediated activation of HEK293 cells\nAs described above, activation of PARs leads to the initiation of a variety of signal transduction pathways and downstream signaling. One consequence of PAR activation presents the intracellular calcium mobilization from storage reservoirs of the endoplasmic reticulum (ER) and mitochondria into the cytosol. […] In the present assay the Indo-1 AM fluorophore was used, which is an esterified derivative of Indo-1 and thus able to penetrate the cell membrane. Upon uptake into the cytoplasm, present esterases will transfer the ester into the carboxylate, which is then trapped in the cell due to its obtained negative charges. A shift in Indo-1 AM emission from 480 nm (calcium free Indo-1 AM) to 400 nm (calcium bound Indo-1 AM) can be detected employing a flow cytometer, when bound to free calcium. […]"}, "[2]": {"system": "PAR2 expressing keratinocytes (HaCaT)", "assay": "PAR2 mediated endocytosis assay (fluorescence microscopy)", "format": "cell-based, human", "conditions": "keratinocytes serum-starved 24 h, 2 h incubation, FIG. 5", "protocol": "SOP: PAR2 Mediated Endocytosis Assay • Culture HaCaT (cultured human keratinocytes) cells in DMEM (Dulbecco's Modified Eagle Medium, phenol red free!) supplemented with 10% (w/v) FCS and antibiotics (gentamicin: 50 μg/mL final conc.) in a 10 cm cell culture plate at a confluency (one cell layer on the plate) of 60-70% • Count the cells and dilute to 1-2×10^4 cells/mL in DMEM (phenol red free!) • Incubate 1 mL of the diluted cell suspension in each well of a 24-well cell culture plate supplemented with 10% (w/v) FCS (containing gentamicin at a final conc. of 50 μg/mL) on a glass coverslip for 24 h at 37° C., 5% CO2 • Discard the supernatant and carefully wash the cells 3 times with 500 μL DMEM (phenol red free, without FCS!) • Incubate the cells for 24 h at 37° C., 5% CO2 (DMEM without serum addition, phenol red free only!) • Add CaCl2 solution to reach a final concentration of 1.5 mM in the medium when using Ca^2+-free medium (induction of cell differentiation) • For PAR2 activation […]\nAn endocytosis assay was used to test whether the PAR ligand-conjugate, i.e. PAR2 agonist P8 enhances the uptake of IONPs into PAR, here PAR2 expressing keratinocytes, when immobilized to the surface of the IONP. […] After the incubation, cells were washed thoroughly for several times and internalization of the modified IONPs was analyzed employing fluorescent microscopy (FIG. 5, lower right corner). […]"}}, "note": "Ends that are not written are not given here.", "data": [{"substance": "2-furoyl(1)L(2)IG(4)RL(6)-NH2", "values": [{"measurement": "effectiveness relative to SLIGRL-NH2", "setting": "PAR2", "value": "10-20 fold"}]}, {"substance": "SerLeuIleGlyArgLeu-NH2 (SLIGRL-NH2) [PAR2 agonist hexapeptide, native tethered ligand of rodent PAR2, reference compound]", "values": [{"measurement": "relative potential of PAR2 activation (rank order)", "setting": "[1]", "value": "decreased from SLIGRL-NH2, to P6 and further to P8"}]}, {"substance": "NH2-DEG-SLIGRL [P6]", "values": [{"measurement": "shift in relative fluorescence intensity (RFI) of the cells relative to the untreated sample (PAR2 activation, intracellular calcium mobilization)", "setting": "[1]", "value": "induced a shift in relative fluorescence intensity"}, {"measurement": "relative potential of PAR2 activation (rank order)", "setting": "[1]", "value": "decreased from SLIGRL-NH2, to P6 and further to P8"}]}, {"substance": "Fam5/6-Lysine-DEG-SLIGRL [P8]", "values": [{"measurement": "shift in relative fluorescence intensity (RFI) of the cells relative to the untreated sample (PAR2 activation, intracellular calcium mobilization)", "setting": "[1]", "value": "induced a shift in relative fluorescence intensity"}, {"measurement": "relative potential of PAR2 activation (rank order)", "setting": "[1]", "value": "decreased from SLIGRL-NH2, to P6 and further to P8"}]}, {"substance": "P8 modified IONPs (SLIGRL; not fully specified (C-terminus); also: P8 modified IONPs (on iron oxide nanoparticles))", "values": [{"measurement": "uptake (internalization) into cultured keratinocytes", "setting": "[2]", "value": "successful uptake"}]}]}
